Reference: paper PMC5108082, “Pharmacokinetics, toxicity, and cytochrome P450 modulatory activity of plumbagin” (BMC Pharmacology & Toxicology, 2016)

System: CYP1A2 mRNA
Experiment: CYP1A2 mRNA expression in livers of treated mice (RT-PCR)
Assay type: in vivo, mouse
Conditions: mice, 25, 12.5, 6.25 mg/kg daily oral for 28 days vs control
Experimental: Mice were divided into four groups (3 male mice each). Mice in the treated groups were fed with plumbagin at a daily oral dose of 25, 12.5, or 6.25 mg/kg body weight (1 mL) for 28 days. The control group received a daily oral dose (1 mL) of 20 % Tween-80 for 28 days. At the end of the experiment period, all animals were sacrificed under ether anesthesia and livers were removed for investigation of the modulatory effect of plumbagin on hepatic CYP1A2 and CYP3A11.
The liver sample isolated from each mouse was rinsed with ice-cold, 0.9 % NaCl and total RNA was prepared using Trizol^TM reagent according to the manufacturer’s protocol (Invitrogen, Karlsruhe, Germany). Briefly, the sample was homogenized in TRIZOL reagent (1 mL) per 50–100 mg of tissue. The homogenized sample was incubated at 25 °C for 5 min and chloroform (0.2 mL/1 mL of TRIZOL reagent) was added. The sample was thoroughly mixed and incubated at 25 °C for 3 min. Following centrifugation (12,000 × g for 15 min, 2–8 °C), the sample was separated into a lower red phenol-chloroform phase, an interphase, and a colorless upper aqueous phase. […] The RNA pellets were dried and dissolved in 20 μL DEPC-treated water and the concentrations were determined using NanoDrop Spectrophotometry (NanoDrop Technologies, Wilmington, DE, USA). […]

## CC1=CC(=O)c2c(O)cccc2C1=O [plumbagin, 5-hydroxy-2-methyl-1,4-naphthoquinone]
  modulation of CYP1A2 mRNA expression: not found to induce or inhibit
Listed as Plumbagin
  modulation of CYP1A2 mRNA expression: did not significantly modulate
